Results on 4 compounds are retold here after US20100291242A1, “ANTAGONIST AGAINST TOLERANCE TO ANTICANCER DRUGS” (Yoshikazu SUGIMOTO, priority 2004, published 2010).

Values after ≈ are worked out from the molar mass of the structure shown. Read-outs that look alike come from different tables or passages of the source.

One test has as its system BCRP. The settings on record: MCF-7 cells. How it is done:
Western blotting was performed to investigate the effect of a steroid hormone and a female hormone on MCF-7, A549, and JEG-3 cells, which intrinsically express BCRP at high level, in terms of the expression level of BCRP. […] Afterwards, expression level of BCRP was determined through the Western blotting technique using an anti-BCRP antibody. In each lane, 30 μg of protein was electrophoresed.

The next test relates to MCF-7 cells. The experiment in a line: Cell growth inhibition test, MCF-7 cells. The format is cell-based, human. Conditions: for IC50: Homo sapiens, MCF7, 96 h, read-out: IC50 (concentration at which cell growth is inhibited by 50%); for IC50 / IC50 (concentration at which cell growth is inhibited by 50%): 4 days. Here is the method: (§1) A cell growth inhibition test was performed to investigate the sensitivity of MCF-7 cells and MCF-7/MycBCRP cells to SN-38. Respective cells were seeded on 12-well plates (Iwaki) in amounts of 30,000 cells/1 mL/well. Subsequently, the drug, diluted with a medium to different concentrations, was added thereto (1 mL per well). The plates were placed in a 5% CO2 incubator and cultivation was performed at 37° C. for […]. Four days after, a cell solution in each well was added to a beaker containing a […] diluent (9.5 mL, To a Medical Electronics Co.). The number of cells was counted by means of a Sysmex CDA-500 automatic cell counter (To a Medical Electronics Co.).
(§2) A cell growth inhibition test was performed to investigate whether estradiol induces any change in sensitivity of MCF-7 cells and MCF-7/MycBCRP cells to SN-38. Respective cells were seeded on 12-well plates (Iwaki) in amounts of 30,000 cells/1 mL/well. Subsequently, the drug, diluted with a medium to different concentrations, was added thereto (1 mL per well). The final concentration of estradiol was adjusted to 0.03 nM or 3 nM. The plates were placed in a 5% CO2 incubator and cultivation was performed at 37° C. for 4 days. Four days after, a cell solution in each well was added to a beaker containing a […] diluent (9.5 mL, To a Medical Electronics Co.). The number of cells was counted by means of a Sysmex CDA-500 automatic cell counter (To a Medical Electronics Co.). In FIG. 4, the cell count is shown by “% of control,” which was obtained by dividing “the cell count as measured when the drug diluted to have different concentrations was added” by “the cell count as measured when no such drug was added.”

For the next test, the system named is MCF-7/MycBCRP cells. The experiment in a line: Cell growth inhibition test, MCF-7/MycBCRP cells. Conditions: for IC50: Homo sapiens, MCF7, 96 h, read-out: IC50 (concentration at which cell growth is inhibited by 50%); for IC50 / IC50 (concentration at which cell growth is inhibited by 50%): 4 days. The class given is cell-based, human. Here is the method:
The cells were named MCF-7/MycBCRP. […] In each lane, 20 μg of protein was electrophoresed.
as §1, §2

The test system of a further test is p-glycoprotein. The test is described as follows: Western blotting of exogenous p-glycoprotein expression in MCF-7/MDR1 cells. The class given is cell-based, human. Conditions: estradiol 3 nM, 4 days, antibody C219. (In general: In western blotting, separated proteins are transferred to a membrane and probed.)

As to `CC/C(=C(/CC)c1ccc(O)cc1)c1ccc(O)cc1` [diethylstilbestrol], the “effect on expression of endogenous BCRP (in words)” value with BCRP is “suppressive effect”.

For the compound `CC[C@]1(O)C[C@H]2CN(CCc3c([nH]c4ccccc34)[C@@](C(=O)OC)(c3cc4c(cc3OC)N(C=O)[C@H]3[C@@](O)(C(=O)OC)[C@H](OC(C)=O)[C@]5(CC)C=CCN6CC[C@]43[C@@H]65)C2)C1` [Vincristine, vincristine], the IC50 with MCF-7 cells (E2 (estradiol) 0.03 nM) worked out at 0.64 ± 0.01 ng/mL (≈ 0.776 nM); in the test with MCF-7 cells (E2 (estradiol) 3 nM), 0.6 ± 0.02 ng/mL (≈ 0.727 nM); in the test with MCF-7/MycBCRP cells (E2 (estradiol) 0.03 nM) it was 0.68 ± 0.03 ng/mL (≈ 0.824 nM); in the test with MCF-7/MycBCRP cells (E2 (estradiol) 3 nM) it was 0.6 ± 0.02 ng/mL (≈ 0.727 nM).

Consider `C[C@]12CC[C@@H]3c4ccc(O)cc4CC[C@H]3[C@@H]1CC[C@@H]2O` [estradiol], for which the “decrease of expression level of exogenous p-glycoprotein” value with p-glycoprotein is reported as “about 20%”.

With `CCc1c2c(nc3ccc(O)cc13)-c1cc3c(c(=O)n1C2)COC(=O)[C@]3(O)CC` [SN-38, 7-ethyl-10-hydroxycamptothecin], the “sensitivity at estradiol 0.03 nM and 3 nM (in words)” value in the test with MCF-7 cells is listed as “almost the same level”. In addition, the “IC50 (concentration at which cell growth is inhibited by 50%)” value was found to be 0.64 ± 0.06 ng/mL (≈ 1.63 nM) with MCF-7 cells (E2 (estradiol) 0.03 nM), 0.50 ± 0.02 ng/mL (≈ 1.27 nM) in the test with MCF-7 cells (E2 (estradiol) 3 nM), 2.13 ± 0.19 ng/mL (≈ 5.43 nM) with MCF-7/MycBCRP cells (E2 (estradiol) 0.03 nM) and 1.09 ± 0.09 ng/mL (≈ 2.78 nM) in the test on MCF-7/MycBCRP cells (E2 (estradiol) 3 nM). For the same compound, the “increase in sensitivity at estradiol 3 nM as compared with 0.03 nM” value in the test on MCF-7/MycBCRP cells was “about twice”.
